Measured values from patent US9956198B2, “Furo[3,4-b]pyran compounds and pharmaceutical uses” (Victoria Link Limited, priority 2013, dated 2018).
Like-named read-outs stand apart in the source and are kept apart here. Values belong to the molecule of their own block, whether it stands above or below them.

Tests used:
c-Src (sarcoma) kinase = c-Src (sarcoma) kinase (Homo sapiens, UniProt P12931); conditions: cited from earlier work
[1] = tested on: PTH-induced bone resorption; conditions: cited from earlier work
NUAK2 = target: T1, NUAK2 (Homo sapiens, UniProt Q9H093); experiment: SelectScreen kinase profiling, LanthaScreen protocol; format: biochemical
T1 sequence (Q9H093 1-628): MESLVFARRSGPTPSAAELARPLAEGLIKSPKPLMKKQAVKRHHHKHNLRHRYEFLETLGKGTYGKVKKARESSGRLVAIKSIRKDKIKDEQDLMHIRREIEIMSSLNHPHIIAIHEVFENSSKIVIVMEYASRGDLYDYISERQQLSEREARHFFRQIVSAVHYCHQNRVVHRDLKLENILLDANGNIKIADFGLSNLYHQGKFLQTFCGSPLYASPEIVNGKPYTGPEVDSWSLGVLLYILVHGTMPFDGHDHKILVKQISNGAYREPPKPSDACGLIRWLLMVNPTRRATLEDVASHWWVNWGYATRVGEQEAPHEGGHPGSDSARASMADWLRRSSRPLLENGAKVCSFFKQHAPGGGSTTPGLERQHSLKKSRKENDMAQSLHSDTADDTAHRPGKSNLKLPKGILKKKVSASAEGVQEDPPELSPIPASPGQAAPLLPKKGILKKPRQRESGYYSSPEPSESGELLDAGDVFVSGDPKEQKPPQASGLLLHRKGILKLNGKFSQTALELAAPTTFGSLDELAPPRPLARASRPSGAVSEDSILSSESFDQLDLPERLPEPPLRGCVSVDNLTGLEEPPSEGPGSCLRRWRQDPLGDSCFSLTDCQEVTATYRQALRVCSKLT
Procedure: (§1) Kinase inhibition assays were conducted by Life Technologies using their SelectScreen® Whole Panel ACCESS Biochemical Kinase Profiling Service. The Z'-LYTE® Screening Protocol was used to obtain the results for the following kinases: AMPK A2/B1/G1, BMX, BTK, MAPK14 (p38 alpha), PLK1, TXK. The LanthaScreen Protocol was used to obtain the result for the following kinase: NUAK2.
(§2) Compound 10 was assessed for kinase inhibition by Life Technologies using the SelectScreen® Whole Panel ACCESS Biochemical Kinase Profiling Service. The Z'-LYTE® Screening Protocol was used to obtain the results for the following kinases: AMPK A2/B1/G1, BMX, BTK, MAPK14 (p38 alpha), PLK1, TXK. The LanthaScreen Protocol was used to obtain the result for the following kinase: NUAK2.

[2] = tested on: MCF7 (breast cancer) cell line; experiment: MTT cell proliferation assay, MCF7; format: cell-based; conditions: Homo sapiens, 72 h, 3 days, read-out: IC50, growth inhibition
Procedure: (§3) Cancer assays were performed using MTT cell proliferation assays with three different immortalised cell lines: a human leukaemia cell line (HL-60), an ovarian cancer cell line (1A9) and a breast cancer cell line (MCF7).
(§4) HL-60, 1A9 and MCF cells were cultured at 37° C. in a 5% CO2 in air atmosphere in RPMI-1640 medium supplemented with 10% fetal calf serum, 100 units/mL penicillin, and 100 units/mL streptomycin (with 0.1% insulin added to the medium for 1A9 and MCF7 cell cultures). An MTT cell proliferation assay was used that involved the reduction of 3-(4,5-dimethylthiazol-2-yl)-2,5-diphenoyltetrazolium bromide (MTT) by viable cells as previously described.^14 Cells were treated with compounds of the invention in 96-well plates (duplicate wells) for 2 days (for HL-60) or 3 days (for 1A9 or MCF7), then incubated with 5 mg/mL MTT in phosphate-buffered saline for 2 h. The blue crystals that formed were solubilised in 10% sodium dodecyl sulfate, 45% dimethylformamide and the absorbance of the solutions measured at 570 nm in a multiwell plate reader (EnSpire™ 2300 Multiplate Reader from Perkin Elmer, Waltham, USA. The half-maximal inhibitory concentration (IC50) was calculated from a concentration-response curve using Sigma Plot software v8 (Systat Software Inc. Point Richmond, Calif.).

[3] = tested on: HL-60 (human leukaemia) cell line; experiment: MTT cell proliferation assay, HL-60; format: cell-based; conditions: HL-60, MTT assay, 2 days, read-out: IC50, growth inhibition
Procedure: as §3, §4

AMPK A2/B1/G1 = AMPK A2/B1/G1 (Homo sapiens, UniProt P54646); experiment: SelectScreen kinase profiling, Z'-LYTE protocol; format: biochemical
Procedure: as §1, §2

PLK1 = PLK1 (Homo sapiens, UniProt P53350); experiment: SelectScreen kinase profiling, Z'-LYTE protocol; format: biochemical
Procedure: as §1, §2

BMX = target: T2, BMX (Homo sapiens, UniProt P51813); experiment: SelectScreen kinase profiling, Z'-LYTE protocol; format: biochemical
T2 sequence (P51813 1-675): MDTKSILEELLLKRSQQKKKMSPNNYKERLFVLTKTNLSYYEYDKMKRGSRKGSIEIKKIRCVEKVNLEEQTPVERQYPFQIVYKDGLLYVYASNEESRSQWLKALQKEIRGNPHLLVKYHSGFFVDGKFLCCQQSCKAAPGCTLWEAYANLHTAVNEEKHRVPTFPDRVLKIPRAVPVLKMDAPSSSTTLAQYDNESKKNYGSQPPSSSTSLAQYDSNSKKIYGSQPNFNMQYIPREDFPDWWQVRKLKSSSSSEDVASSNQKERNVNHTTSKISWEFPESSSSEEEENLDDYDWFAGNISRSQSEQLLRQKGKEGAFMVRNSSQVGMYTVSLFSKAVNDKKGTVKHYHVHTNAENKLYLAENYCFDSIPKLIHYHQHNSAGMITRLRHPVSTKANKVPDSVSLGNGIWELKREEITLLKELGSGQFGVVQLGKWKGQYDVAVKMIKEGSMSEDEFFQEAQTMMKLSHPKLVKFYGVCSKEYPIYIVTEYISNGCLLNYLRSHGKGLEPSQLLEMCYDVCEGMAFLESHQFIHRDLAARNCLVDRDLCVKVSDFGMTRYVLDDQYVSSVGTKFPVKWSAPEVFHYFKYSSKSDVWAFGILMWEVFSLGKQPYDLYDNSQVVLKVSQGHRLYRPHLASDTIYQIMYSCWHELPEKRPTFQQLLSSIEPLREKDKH
Procedure: as §1, §2

TXK = target: T3, TXK (Homo sapiens, UniProt P42681); experiment: SelectScreen kinase profiling, Z'-LYTE protocol; format: biochemical
T3 sequence (P42681 1-527): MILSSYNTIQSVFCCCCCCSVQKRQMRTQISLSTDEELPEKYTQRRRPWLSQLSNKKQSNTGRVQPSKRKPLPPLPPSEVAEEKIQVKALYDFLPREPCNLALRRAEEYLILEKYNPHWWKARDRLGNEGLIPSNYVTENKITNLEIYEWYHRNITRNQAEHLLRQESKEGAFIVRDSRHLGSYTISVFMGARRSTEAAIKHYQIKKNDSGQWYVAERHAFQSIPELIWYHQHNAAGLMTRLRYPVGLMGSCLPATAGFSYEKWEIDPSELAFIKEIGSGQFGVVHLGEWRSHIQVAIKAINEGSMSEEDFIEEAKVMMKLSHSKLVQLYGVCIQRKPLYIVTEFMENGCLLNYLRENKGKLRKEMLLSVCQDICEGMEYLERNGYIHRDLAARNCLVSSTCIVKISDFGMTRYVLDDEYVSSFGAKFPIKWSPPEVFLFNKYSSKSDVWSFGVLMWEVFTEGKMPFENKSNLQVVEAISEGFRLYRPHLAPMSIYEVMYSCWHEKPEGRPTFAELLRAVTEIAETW
Procedure: as §1, §2

MAPK14 (p38 alpha) = MAPK14 (p38 alpha) (Homo sapiens, UniProt Q16539); experiment: SelectScreen kinase profiling, Z'-LYTE protocol; format: biochemical
Procedure: as §1, §2

[4] = target: BTK (Bruton's tyrosine kinase) (Homo sapiens, UniProt Q06187); experiment: SelectScreen kinase profiling, Z'-LYTE protocol; format: biochemical
Procedure: as §1, §2

[5] = tested on: 1A9 (ovarian cancer) cell line; experiment: MTT cell proliferation assay, 1A9; format: cell-based; conditions: 1A9, MTT assay, 3 days; read-out: IC50, growth inhibition
Procedure: as §3, §4

[6] = read-out: Inhibition (IC50 at 10 μM)
[7] = single-point, read-out: percent inhibition

Chain of AMPK A2/B1/G1 (P54646 whole entry): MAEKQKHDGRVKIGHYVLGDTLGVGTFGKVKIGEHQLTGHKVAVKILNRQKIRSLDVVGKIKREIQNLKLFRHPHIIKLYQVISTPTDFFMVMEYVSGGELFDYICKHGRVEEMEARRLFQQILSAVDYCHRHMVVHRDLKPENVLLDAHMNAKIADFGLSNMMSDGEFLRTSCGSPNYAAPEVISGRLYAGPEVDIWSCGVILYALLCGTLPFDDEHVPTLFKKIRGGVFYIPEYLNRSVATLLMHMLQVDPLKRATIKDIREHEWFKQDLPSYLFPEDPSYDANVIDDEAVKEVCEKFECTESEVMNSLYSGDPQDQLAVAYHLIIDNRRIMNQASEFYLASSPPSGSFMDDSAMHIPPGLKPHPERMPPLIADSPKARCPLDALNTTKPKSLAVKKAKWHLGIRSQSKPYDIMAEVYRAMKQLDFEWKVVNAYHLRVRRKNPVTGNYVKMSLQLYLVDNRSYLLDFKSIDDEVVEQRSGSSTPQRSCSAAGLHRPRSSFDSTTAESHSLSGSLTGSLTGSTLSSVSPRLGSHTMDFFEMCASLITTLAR
Chain of AMPK A2/B1/G1 (Q9Y478 whole entry partner): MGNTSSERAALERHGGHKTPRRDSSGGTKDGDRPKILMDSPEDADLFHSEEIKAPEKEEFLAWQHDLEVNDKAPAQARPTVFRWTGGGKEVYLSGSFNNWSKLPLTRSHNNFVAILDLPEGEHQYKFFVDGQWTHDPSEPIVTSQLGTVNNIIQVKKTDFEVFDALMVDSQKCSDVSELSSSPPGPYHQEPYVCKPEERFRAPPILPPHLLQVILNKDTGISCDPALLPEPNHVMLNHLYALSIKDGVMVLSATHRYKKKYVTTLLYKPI
Chain of AMPK A2/B1/G1 (P54619 whole entry partner): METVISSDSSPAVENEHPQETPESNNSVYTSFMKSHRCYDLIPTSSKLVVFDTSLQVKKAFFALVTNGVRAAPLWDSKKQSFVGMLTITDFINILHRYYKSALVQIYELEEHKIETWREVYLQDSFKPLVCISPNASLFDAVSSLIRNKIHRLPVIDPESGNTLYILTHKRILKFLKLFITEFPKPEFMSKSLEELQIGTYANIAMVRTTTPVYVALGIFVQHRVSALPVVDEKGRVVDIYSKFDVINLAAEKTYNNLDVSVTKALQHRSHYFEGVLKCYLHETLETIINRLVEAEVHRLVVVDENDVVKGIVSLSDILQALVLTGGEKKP
Chain of MAPK14 (p38 alpha) (Q16539 whole entry): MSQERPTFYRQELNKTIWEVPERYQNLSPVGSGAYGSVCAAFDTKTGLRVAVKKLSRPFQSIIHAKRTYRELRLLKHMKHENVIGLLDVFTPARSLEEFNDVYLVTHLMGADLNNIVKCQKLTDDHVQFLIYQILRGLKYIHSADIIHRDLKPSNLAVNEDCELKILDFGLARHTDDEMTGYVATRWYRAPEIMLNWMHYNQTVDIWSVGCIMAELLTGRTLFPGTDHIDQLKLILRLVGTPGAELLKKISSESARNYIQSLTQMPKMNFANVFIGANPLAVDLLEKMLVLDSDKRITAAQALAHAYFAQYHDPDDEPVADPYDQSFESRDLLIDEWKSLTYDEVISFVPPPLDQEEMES
Chain of BTK (Bruton's tyrosine kinase) (Q06187 whole entry): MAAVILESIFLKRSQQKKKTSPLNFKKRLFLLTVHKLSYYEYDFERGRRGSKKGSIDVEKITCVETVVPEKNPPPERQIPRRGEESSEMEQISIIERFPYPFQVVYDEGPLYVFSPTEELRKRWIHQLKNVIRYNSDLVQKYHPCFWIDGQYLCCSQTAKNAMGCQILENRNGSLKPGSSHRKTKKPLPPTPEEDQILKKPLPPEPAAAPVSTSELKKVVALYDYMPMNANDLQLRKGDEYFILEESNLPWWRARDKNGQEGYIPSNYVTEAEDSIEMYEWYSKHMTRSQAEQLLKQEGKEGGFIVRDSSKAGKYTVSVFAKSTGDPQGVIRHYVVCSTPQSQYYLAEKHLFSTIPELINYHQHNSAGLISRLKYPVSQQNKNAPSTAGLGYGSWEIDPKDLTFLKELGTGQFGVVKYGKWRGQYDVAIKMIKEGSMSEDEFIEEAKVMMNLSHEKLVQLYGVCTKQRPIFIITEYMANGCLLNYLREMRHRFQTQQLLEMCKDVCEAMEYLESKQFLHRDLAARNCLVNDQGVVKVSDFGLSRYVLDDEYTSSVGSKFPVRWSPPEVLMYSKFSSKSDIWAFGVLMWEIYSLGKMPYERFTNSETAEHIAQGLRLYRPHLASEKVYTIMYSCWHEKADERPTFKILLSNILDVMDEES
Chain of c-Src (sarcoma) kinase (P12931 whole entry): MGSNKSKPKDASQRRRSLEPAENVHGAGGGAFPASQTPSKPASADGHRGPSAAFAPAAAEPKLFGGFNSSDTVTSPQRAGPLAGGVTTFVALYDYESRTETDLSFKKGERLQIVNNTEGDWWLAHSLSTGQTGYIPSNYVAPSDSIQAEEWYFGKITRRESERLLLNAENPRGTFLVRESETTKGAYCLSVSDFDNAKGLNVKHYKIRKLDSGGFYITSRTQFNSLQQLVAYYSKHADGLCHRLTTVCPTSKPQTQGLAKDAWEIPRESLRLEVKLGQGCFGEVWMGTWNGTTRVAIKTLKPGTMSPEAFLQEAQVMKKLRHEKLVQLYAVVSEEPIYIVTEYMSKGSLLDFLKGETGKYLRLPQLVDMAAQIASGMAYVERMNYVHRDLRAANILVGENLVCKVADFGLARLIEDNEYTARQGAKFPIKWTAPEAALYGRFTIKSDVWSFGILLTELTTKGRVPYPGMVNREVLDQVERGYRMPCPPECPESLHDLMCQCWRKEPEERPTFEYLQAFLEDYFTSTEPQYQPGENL
Chain of PLK1 (P53350 whole entry): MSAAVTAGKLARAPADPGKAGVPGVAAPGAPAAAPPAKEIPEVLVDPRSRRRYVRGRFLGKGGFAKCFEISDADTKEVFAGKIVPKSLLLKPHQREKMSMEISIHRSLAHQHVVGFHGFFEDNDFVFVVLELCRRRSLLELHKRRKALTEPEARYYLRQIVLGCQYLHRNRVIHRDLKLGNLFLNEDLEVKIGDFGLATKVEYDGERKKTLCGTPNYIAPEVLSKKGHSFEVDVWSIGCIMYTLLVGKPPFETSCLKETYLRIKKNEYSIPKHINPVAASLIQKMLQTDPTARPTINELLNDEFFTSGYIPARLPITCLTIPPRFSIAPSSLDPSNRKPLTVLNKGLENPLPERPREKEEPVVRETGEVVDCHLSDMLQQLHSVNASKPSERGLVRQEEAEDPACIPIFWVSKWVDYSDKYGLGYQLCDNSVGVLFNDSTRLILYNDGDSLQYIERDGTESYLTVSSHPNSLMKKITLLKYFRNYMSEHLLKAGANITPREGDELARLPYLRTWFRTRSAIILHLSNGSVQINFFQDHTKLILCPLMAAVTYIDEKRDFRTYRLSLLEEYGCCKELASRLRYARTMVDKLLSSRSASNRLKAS

IC50 ([3]; Homo sapiens, 48 h): 42 µM
Molecule: C[C@@H]1OC(=O)C2=C[C@@H](O)[C@@H](/C=C/CO)O[C@@H]21 [Compound 19, Hydroxy-TAN-2483B]

IC50 [5]: 3.4 µM | IC50 [3]: 2.2 µM
Molecule: (−)-TAN-2483B E-ethyl ester [Compound 14]

Continued, molecule first:

Molecule: C/C=C/[C@H]1O[C@@H]2C(=C[C@H]1O)C(=O)O[C@H]2C [(−)-TAN-2483A]
inhibition of c-Src (sarcoma) kinase (c-Src (sarcoma) kinase): inhibition | inhibition of PTH-induced bone resorption [1]: inhibition

Molecule: C/C=C/[C@H]1O[C@H]2C(=C[C@H]1O)C(=O)O[C@H]2C [(−)-TAN-2483B]
inhibition of c-Src (sarcoma) kinase (c-Src (sarcoma) kinase): inhibition | inhibition of PTH-induced bone resorption [1]: inhibition

Molecule: CCOC(=O)/C=C\[C@H]1O[C@H]2C(=C[C@H]1O)C(=O)O[C@H]2C [Compound 10, (−)-TAN-2483B Z-ethyl ester]
inhibition at 10 µM (NUAK2; NUAK2, at 10 μM, read-out: Inhibition (IC50 at 10 μM)): 76% | inhibition at 10 µM (NUAK2; NUAK2, single-point, at 10 μM, read-out: percent inhibition): 76% | IC50 [2]: 9 µM | IC50 ([3]; Homo sapiens, 48 h): 3.6 µM | inhibition at 10 µM (AMPK A2/B1/G1; AMPK A2/B1/G1, at 10 μM, read-out: Inhibition (IC50 at 10 μM)): 81% | inhibition at 10 µM (AMPK A2/B1/G1; AMPK A2/B1/G1, single-point, at 10 μM, read-out: percent inhibition): 81% | inhibition at 10 µM (PLK1; PLK1, at 10 μM, read-out: Inhibition (IC50 at 10 μM)): 81% | inhibition at 10 µM (PLK1; PLK1, single-point, at 10 μM, read-out: percent inhibition): 81% | inhibition at 10 µM (BMX; [6]): 80% | inhibition at 10 µM (BMX; [7]): 80% | inhibition at 10 µM (TXK; TXK1, at 10 μM, read-out: Inhibition (IC50 at 10 μM)): 71% | inhibition at 10 µM (TXK; TXK, single-point, at 10 μM, read-out: percent inhibition): 71% | inhibition at 10 µM (MAPK14 (p38 alpha); MAPK14 (p38 alpha), single-point, at 10 μM, read-out: percent inhibition): 74% | inhibition at 10 µM (MAPK14 (p38 alpha); MAPK14, at 10 μM, read-out: Inhibition (IC50 at 10 μM)): 74% | inhibition at 10 µM [4, 6]: 83% | inhibition at 10 µM [4, 7]: 83%
